How the values were obtained:
Conditions in all cases: 72 h
Caco-2 [1] = assay: cell viability relative to DMSO; higher = less toxic
Calu-3 [2] = assay: as above
HepG2 [3] = assay: as above
U2OS [4] = assay: as above
Vero E6 [5] = assay: as above
Calu-3 [6] = assay: relative viability EC50 (midpoint between 100% and the lowest measured viability); higher = less toxic
U2OS [7] = assay: as above
Vero E6 [8] = assay: as above
Caco-2 [9] = assay: drug sensitivity score (DSS) for viability; higher = more toxic; extreme values may be limits of the assay
Calu-3 [10] = assay: as above
HepG2 [11] = assay: as above
U2OS [12] = assay: as above
Vero E6 [13] = assay: as above
HepG2 [14] = assay: relative viability EC50 (midpoint between 100% and the lowest measured viability); higher = less toxic

| SMILES | cell viability (Caco-2 [1]; 1 nM) [%] | cell viability (Caco-2 [1]; 10 nM) [%] | cell viability (Caco-2 [1]; 100 nM) [%] | cell viability (Caco-2 [1]; 1000 nM) [%] | cell viability (Caco-2 [1]; 10000 nM) [%] | cell viability (Calu-3 [2]; 1 nM) [%] | cell viability (Calu-3 [2]; 10 nM) [%] | cell viability (Calu-3 [2]; 100 nM) [%] | cell viability (Calu-3 [2]; 1000 nM) [%] | cell viability (Calu-3 [2]; 10000 nM) [%] | cell viability (HepG2 [3]; 1 nM) [%] | cell viability (HepG2 [3]; 10 nM) [%] | cell viability (HepG2 [3]; 100 nM) [%] | cell viability (HepG2 [3]; 1000 nM) [%] | cell viability (HepG2 [3]; 10000 nM) [%] | cell viability (U2OS [4]; 1 nM) [%] | cell viability (U2OS [4]; 10 nM) [%] | cell viability (U2OS [4]; 100 nM) [%] | cell viability (U2OS [4]; 1000 nM) [%] | cell viability (U2OS [4]; 10000 nM) [%] | cell viability (Vero E6 [5]; 1 nM) [%] | cell viability (Vero E6 [5]; 10 nM) [%] | cell viability (Vero E6 [5]; 100 nM) [%] | cell viability (Vero E6 [5]; 1000 nM) [%] | cell viability (Vero E6 [5]; 10000 nM) [%] | relative viability EC50 (Calu-3 [6]) [µM] | relative viability EC50 (U2OS [7]) [µM] | relative viability EC50 (Vero E6 [8]) [µM] | drug sensitivity score (Caco-2 [9]) | drug sensitivity score (Calu-3 [10]) | drug sensitivity score (HepG2 [11]) | drug sensitivity score (U2OS [12]) | drug sensitivity score (Vero E6 [13]) | relative viability EC50 (HepG2 [14]) [µM] |
| --- | --- | --- | --- | --- | --- | --- | --- | --- | --- | --- | --- | --- | --- | --- | --- | --- | --- | --- | --- | --- | --- | --- | --- | --- | --- | --- | --- | --- | --- | --- | --- | --- | --- | --- |
| N#C/C(=C\c1ccc(O)c(O)c1)C(=O)NCCCc1ccccc1 [AG-555] | 96.7 | 100 | 113 | 84.1 | 68.1 | 112 | 95.2 | 101 | 105 | 88.4 | 95.5 | 89.9 | 95.8 | 95.4 | 74.7 | 99 | 99.5 | 103 | 99.1 | 88.7 | 102 | 102 | 103 | 103 | 79.7 | > 10 | > 10 | > 10 | 3.4 | 0 | 1.7 | 0 | 0.5 |  |
| NC(=S)N/N=C/c1coc2ccccc2c1=O.[Cl][Cu][Cl] [FPA-124] | 106 | 103 | 96.1 | 104 | 70.4 | 104 | 103 | 102 | 99 | 106 | 94.5 | 101 | 97.5 | 109 | 95.3 | 105 | 99.1 | 101 | 97.3 | 99.8 |  |  |  |  |  | > 10 | > 10 |  | 1 | 0 | 0 | 0 |  | > 10 |
| CS(=O)(=O)c1ccc(-c2cn3ccccc3n2)cc1 [zolimidine] |  |  |  |  |  |  |  |  |  |  | 117 | 104 | 87.3 | 98.6 | 93.8 | 100 | 94.7 | 94.8 | 93.5 | 95.9 | 107 | 107 | 105 | 94.4 | 88 |  | > 10 | > 10 |  |  | 0 | 0 | 0.3 | > 10 |
| COc1ccc(-c2oc3c(CC=C(C)C)c(O[C@@H]4O[C@H](CO)[C@@H](O)[C@H](O)[C@H]4O)cc(O)c3c(=O)c2O[C@@H]2O[C@@H](C)[C@H](O)[C@@H](O)[C@H]2O)cc1 [icariin] |  |  |  |  |  |  |  |  |  |  |  |  |  |  |  |  |  |  |  |  |  |  |  |  |  |  |  |  |  | 0 | 0 | 0 | 0 |  |
| CC(C)Cc1ccc([C@@H](C)C(=O)NS(C)(=O)=O)cc1 [reparixin] |  |  |  |  |  |  |  |  |  |  |  |  |  |  |  |  |  |  |  |  |  |  |  |  |  |  |  |  |  | 0 | 0 | 0 | 0 |  |
| N[C@@H](Cc1cc(I)c(Oc2ccc(O)c(I)c2)c(I)c1)C(=O)O [liothyronine] | 93.8 | 98.5 | 96.7 | 98.1 | 96.5 | 98.9 | 96.8 | 92.5 | 93.5 | 95 | 102 | 104 | 107 | 96.6 |  | 97.1 | 97.5 | 93.4 | 96 | 93.5 | 104 | 92.4 | 92.6 | 88.6 | 91.3 |  |  |  | 0 | 0 | 0 | 0 | 1 |  |
| C[C@H](Cc1ccc(O)c(O)c1)[C@@H](C)Cc1ccc(O)c(O)c1 [masoprocol] | 88.3 | 83.1 | 72.1 | 78.6 | 55.5 | 95.5 | 108 | 93.4 | 93.6 | 93 | 98.3 | 94 | 94.5 | 101 | 97.1 | 92.1 | 104 | 97.7 | 97.8 | 95.9 | 102 | 91.6 | 88.6 | 91.5 | 81.3 | > 10 | > 10 | > 10 | 9.6 | 0 | 0 | 0 | 1.4 | > 10 |
| CN1CCN(c2ccc(Nc3ncc4cc(C#N)c(=O)n(C5CCCC5)c4n3)cc2)CC1 | 98 | 93.9 | 101 | 92.3 | 74.9 | 105 | 103 | 98.9 | 87.9 | 111 | 99.8 | 99.7 | 102 | 88.8 | 52.9 | 100 | 98 | 102 | 98.3 | 70 | 105 | 107 | 107 | 99.1 | 58.1 | > 10 |  |  | 2 | 0 | 4.2 | 1.5 | 2.2 |  |
| O=C(N[C@H](CO)[C@H](O)c1ccc([N+](=O)[O-])cc1)C(Cl)Cl [chloramphenicol] |  |  |  |  |  |  |  |  |  |  |  |  |  |  |  |  |  |  |  |  |  |  |  |  |  |  |  |  |  | 0 | 1.1 | 0 | 0 |  |
| O=C(O)Cc1ccccc1Nc1c(Cl)cccc1Cl [diclofenac] |  |  |  |  |  |  |  |  |  |  |  |  |  |  |  |  |  |  |  |  |  |  |  |  |  |  |  |  |  | 0 |  | 0 | 0 |  |
| Nc1ccc2ncnc(NCCc3ccc(Oc4ccccc4)cc3)c2c1 [EVP4593] | 104 | 96.9 | 88 | 78.4 | 74.5 | 106 | 98.9 | 97.7 | 92.1 | 86.5 | 109 | 109 | 78.1 | 20.2 | 19.4 | 103 | 96.3 | 94.7 | 67.4 | 64.5 | 93.5 | 90.2 | 91.1 | 73.3 | 77 | > 10 |  |  | 4.3 | 0.3 | 18 | 6.3 | 4.4 | 0.149 |
| N#CC(=C(/N)Sc1ccccc1N)/C(C#N)=C(/N)Sc1ccccc1N [U-0126] | 100 | 96.8 | 99.3 | 86.4 | 65 | 94.6 | 102 | 100 | 90.6 | 93.5 | 101 | 95.9 | 94.7 | 70.6 | 41 | 98.2 | 104 | 96.9 | 98.3 | 84.3 | 102 | 99.9 | 97.9 | 88.6 | 80.9 | > 10 | > 10 | > 10 | 3.4 | 0 | 6.6 | 0.4 | 1.3 | 0.953 |
| Cc1sc2c(c1C)C(c1ccc(Cl)cc1)=N[C@@H](CC(=O)Nc1ccc(O)cc1)c1nnc(C)n1-2 [OTX015] | 105 | 94.5 | 95.6 | 84.6 | 53.1 | 109 | 113 | 108 | 82.3 | 55.9 | 106 | 110 | 85.1 | 47.4 | 24.9 | 99.7 | 102 | 89.3 | 62.9 | 38.8 | 97.5 | 92.7 | 84.5 | 21.8 | 8 |  | 0.592 | 0.298 | 4.3 | 4.7 | 11.6 | 8.2 | 16.3 | 0.434 |
| CCCCOc1ccc(CC/C=C2\SC(=O)N(CCN)C2=O)cc1 [K145] | 97.9 | 106 | 95.1 | 91.2 | 73.9 | 92.1 | 108 | 87.1 | 101 | 92.5 | 107 | 102 | 95 | 95.4 | 82.7 | 89.3 | 97.1 | 91.4 | 93.1 | 83.1 | 108 | 103 | 101 | 104 | 92 | > 10 | > 10 | > 10 | 1.7 | 0 | 0.6 | 0 | 0 | > 10 |
| COc1ccc(C(=O)N2CCCC2=O)cc1 [aniracetam] |  |  |  |  |  |  |  |  |  |  |  |  |  |  |  |  |  |  |  |  |  |  |  |  |  |  |  |  |  | 0 | 0 | 0 | 0 |  |
| CC(C)(C)c1ccc(NC(=O)N2CCN(c3ncccc3Cl)CC2)cc1 [BCTC] | 88.8 | 99.6 | 92.8 | 89.9 | 62.2 | 98.1 | 101 | 99.5 | 102 | 71.2 | 99.3 | 92.7 | 96.7 | 102 | 93.3 | 99.3 | 106 | 97.4 | 101 | 95 | 99 | 101 | 100 | 94.4 | 86.1 |  | > 10 | > 10 | 3 | 1.1 | 0 | 0 | 0.5 | > 10 |
| CC(C)(C)NC(=O)[C@@H]1C[C@@H]2CCCC[C@@H]2CN1C[C@@H](O)[C@H](Cc1ccccc1)NC(=O)[C@H](CC(N)=O)NC(=O)c1ccc2ccccc2n1 [saquinavir] | 101 | 87.9 | 95.7 | 90.4 | 72.4 | 96.8 | 104 | 93.2 | 102 | 109 | 91.8 | 90.1 | 100 | 82.2 | 84.3 | 101 | 101 | 100 | 103 | 89.8 | 103 | 101 | 104 | 85.1 | 101 | > 10 | > 10 | > 10 | 1.9 | 0 | 1 | 0 | 0 | > 10 |
| CCCSc1ccc2[nH]c(NC(=O)OC)nc2c1 [albendazole] | 87.7 | 98.6 | 96.9 | 88 | 66.7 | 107 | 102 | 111 | 94.7 | 66.4 | 103 | 97.9 | 85.6 | 68.7 | 33.1 | 101 | 100 | 94.5 | 81.1 | 47.8 | 105 | 95.3 | 104 | 80.1 | 34.6 |  | 1.37 | 1.39 | 2.8 | 2.4 | 7.8 | 4.9 | 6.5 | 0.824 |

From the supplement of paper PMC13380429
